Assay results as given in a compilation of properties of binary mixtures (doi:10.1021/je401124t).

Assay: xn = mol fraction of the nth substance listed
Conditions: 101 kPa

COP(=O)([O-])OC.Cn1cc[n+](C)c1 + CC(C)O
viscosity [mPa·s]
Conditions	x2 = 0	x2 = 0.0999	x2 = 0.2032	x2 = 0.301	x2 = 0.402	x2 = 0.5002	x2 = 0.6	x2 = 0.7009	x2 = 0.7997	x2 = 0.9013
293.15 K	–	–	254	173.1	–	67	38.35	21.3	11.44	5.77
298.15 K	291	253	–	129.9	75.3	–	31.53	–	9.87	5
303.15 K	210	184.2	136.2	99.8	61.1	–	26.2	15.37	8.59	4.361
308.15 K	155.6	138.2	105	78.4	49.7	35.62	22.05	–	7.54	–
313.15 K	–	–	–	–	40.99	29.78	18.74	11.54	6.64	3.359
318.15 K	92.8	82.8	–	51.5	33.95	–	16.13	–	5.89	2.969
323.15 K	74.2	66.4	54	42.88	28.66	–	14.03	8.94	5.25	–

COP(=O)([O-])OC.Cn1cc[n+](C)c1 + CCCO
viscosity [mPa·s]
Conditions	x2 = 0	x2 = 0.098	x2 = 0.1993	x2 = 0.3018	x2 = 0.4	x2 = 0.5002	x2 = 0.5996	x2 = 0.6995	x2 = 0.799	x2 = 0.8998
293.15 K	416	296	211	–	85.2	50.8	29.52	17.53	9.79	4.441
298.15 K	–	215	154.1	93	66.9	41.59	25.38	15.17	8.63	3.929
303.15 K	210	159	–	74.1	53.6	–	–	13.16	7.61	3.492
308.15 K	155.6	121.1	–	59.5	43.67	28.52	18.35	11.51	6.76	3.118
313.15 K	119.2	93.9	71.2	48.5	36.1	24.02	–	10.13	6.04	2.795
318.15 K	92.8	–	57.8	39.92	–	–	13.79	8.97	5.42	2.516
323.15 K	74.2	60.9	47.8	–	25.67	17.68	–	8	–	2.273

COP(=O)([O-])OC.Cn1cc[n+](C)c1 + CCO
viscosity [mPa·s]
Conditions	x2 = 0	x2 = 0.0999	x2 = 0.2028	x2 = 0.3009	x2 = 0.4074	x2 = 0.5028	x2 = 0.6	x2 = 0.6992	x2 = 0.7999	x2 = 0.9
293.15 K	416	339	246	134.3	77.7	–	–	13.76	–	–
298.15 K	291	238	182.5	98.7	–	30.76	–	11.97	5.6	2.824
303.15 K	210	–	138.5	78.5	48.7	25.78	18.08	10.5	–	2.567
308.15 K	155.6	130.7	106.8	62.9	39.62	–	15.59	–	4.509	2.341
313.15 K	119.2	100.8	84	51	32.73	18.94	13.59	8.27	4.077	2.143
318.15 K	–	79.1	67	41.98	27.44	16.42	11.88	7.41	–	1.97
323.15 K	74.2	–	54.4	35.06	23.3	14.35	10.51	6.68	3.378	–

COP(=O)([O-])OC.Cn1cc[n+](C)c1 + CO
viscosity [mPa·s]
Conditions	x2 = 0	x2 = 0.1054	x2 = 0.2009	x2 = 0.2977	x2 = 0.3984	x2 = 0.5028	x2 = 0.6018	x2 = 0.7027	x2 = 0.8002	x2 = 0.8998
293.15 K	416	278	174.8	111.5	68	36.25	–	10.21	4.9	–
298.15 K	–	201.1	121.9	–	–	29.9	17.07	9.02	4.419	1.776
303.15 K	210	149.7	–	67.9	43.95	–	14.7	8.01	4.006	1.642
308.15 K	155.6	114.3	–	54.4	36.27	–	12.81	7.16	3.65	1.523
313.15 K	119.2	89.4	60.5	44.4	30.38	18.06	11.25	6.44	3.336	1.416
318.15 K	92.8	–	49.2	36.86	25.8	15.62	9.96	–	3.061	1.322
323.15 K	74.2	58.3	40.66	–	22.16	–	8.88	5.3	2.82	1.243

CC(C)O + COP(=O)([O-])OC.Cn1cc[n+](C)c1
x1 = 1
Conditions	viscosity [mPa·s]
293.15 K	2.439
298.15 K	2.134
303.15 K	1.845
308.15 K	1.603
313.15 K	1.4
318.15 K	1.228
323.15 K	1.083

CCCO + COP(=O)([O-])OC.Cn1cc[n+](C)c1
x1 = 1
Conditions	viscosity [mPa·s]
293.15 K	2.188
298.15 K	1.974
303.15 K	1.761
308.15 K	1.575
313.15 K	1.416
318.15 K	1.273
323.15 K	1.15

CCO + COP(=O)([O-])OC.Cn1cc[n+](C)c1
x1 = 1
Conditions	viscosity [mPa·s]
293.15 K	1.192
298.15 K	1.085
303.15 K	0.99
308.15 K	0.906
313.15 K	0.831
318.15 K	0.764
323.15 K	0.704

CO + COP(=O)([O-])OC.Cn1cc[n+](C)c1
x1 = 1
Conditions	viscosity [mPa·s]
293.15 K	0.586
298.15 K	0.552
308.15 K	0.491
313.15 K	0.465
323.15 K	0.418
